Data set [1] in a line: Cytotoxicity against HEK-Blue cells over-expressing NOD2 assessed as residual metabolic activity at 20 uM after 18 hrs by CellTiter 96 aqueous one solution cell proliferation assay relative to control. As to conditions: human, read-out: Activity. The format is ADME, cell-based.
The target in data set [2] is T1, Nucleotide-binding oligomerization domain-containing protein 2 (Homo sapiens, UniProt Q9HC29). Description: Agonist activity at human NOD2 expressed in HEK-Blue cells assessed as induction of NF-kB transcriptional activity at 20 uM after 18 hrs by SEAP reporter gene assay. Type of data set: cell-based. In general terms: A reporter such as luciferase makes a cellular process visible.
T1 sequence (Q9HC29 whole entry, the tested form may be a part): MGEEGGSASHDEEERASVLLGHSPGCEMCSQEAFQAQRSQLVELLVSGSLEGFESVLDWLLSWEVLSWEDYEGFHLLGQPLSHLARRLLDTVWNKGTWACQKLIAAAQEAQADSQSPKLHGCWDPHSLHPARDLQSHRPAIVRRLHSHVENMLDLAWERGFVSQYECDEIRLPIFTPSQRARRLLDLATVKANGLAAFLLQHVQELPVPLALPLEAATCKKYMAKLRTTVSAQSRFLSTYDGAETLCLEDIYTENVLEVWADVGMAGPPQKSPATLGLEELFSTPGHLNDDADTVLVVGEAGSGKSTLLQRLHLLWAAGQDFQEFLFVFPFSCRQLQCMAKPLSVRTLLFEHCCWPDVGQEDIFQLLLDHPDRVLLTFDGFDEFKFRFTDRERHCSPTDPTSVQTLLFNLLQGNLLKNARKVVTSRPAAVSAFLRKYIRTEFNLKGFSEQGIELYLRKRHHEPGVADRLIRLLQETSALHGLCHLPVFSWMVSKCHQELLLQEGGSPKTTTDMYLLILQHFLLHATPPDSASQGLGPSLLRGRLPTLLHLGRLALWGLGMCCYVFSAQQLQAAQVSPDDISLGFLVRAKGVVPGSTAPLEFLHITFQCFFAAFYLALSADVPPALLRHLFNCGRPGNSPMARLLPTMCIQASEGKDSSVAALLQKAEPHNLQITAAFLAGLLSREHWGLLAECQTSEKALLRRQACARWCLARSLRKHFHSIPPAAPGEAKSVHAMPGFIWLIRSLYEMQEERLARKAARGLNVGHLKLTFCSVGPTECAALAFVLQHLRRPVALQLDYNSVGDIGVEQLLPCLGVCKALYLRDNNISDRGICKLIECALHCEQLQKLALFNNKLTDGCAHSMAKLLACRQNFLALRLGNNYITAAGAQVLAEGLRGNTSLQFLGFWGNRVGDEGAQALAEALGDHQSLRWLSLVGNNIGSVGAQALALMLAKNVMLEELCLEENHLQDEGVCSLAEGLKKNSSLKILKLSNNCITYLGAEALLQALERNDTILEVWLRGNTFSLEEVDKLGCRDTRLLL

The target in data set [3] is T2, Nucleotide-binding oligomerization domain-containing protein 1 (Homo sapiens) (UniProt Q9Y239).
T2 sequence (whole entry): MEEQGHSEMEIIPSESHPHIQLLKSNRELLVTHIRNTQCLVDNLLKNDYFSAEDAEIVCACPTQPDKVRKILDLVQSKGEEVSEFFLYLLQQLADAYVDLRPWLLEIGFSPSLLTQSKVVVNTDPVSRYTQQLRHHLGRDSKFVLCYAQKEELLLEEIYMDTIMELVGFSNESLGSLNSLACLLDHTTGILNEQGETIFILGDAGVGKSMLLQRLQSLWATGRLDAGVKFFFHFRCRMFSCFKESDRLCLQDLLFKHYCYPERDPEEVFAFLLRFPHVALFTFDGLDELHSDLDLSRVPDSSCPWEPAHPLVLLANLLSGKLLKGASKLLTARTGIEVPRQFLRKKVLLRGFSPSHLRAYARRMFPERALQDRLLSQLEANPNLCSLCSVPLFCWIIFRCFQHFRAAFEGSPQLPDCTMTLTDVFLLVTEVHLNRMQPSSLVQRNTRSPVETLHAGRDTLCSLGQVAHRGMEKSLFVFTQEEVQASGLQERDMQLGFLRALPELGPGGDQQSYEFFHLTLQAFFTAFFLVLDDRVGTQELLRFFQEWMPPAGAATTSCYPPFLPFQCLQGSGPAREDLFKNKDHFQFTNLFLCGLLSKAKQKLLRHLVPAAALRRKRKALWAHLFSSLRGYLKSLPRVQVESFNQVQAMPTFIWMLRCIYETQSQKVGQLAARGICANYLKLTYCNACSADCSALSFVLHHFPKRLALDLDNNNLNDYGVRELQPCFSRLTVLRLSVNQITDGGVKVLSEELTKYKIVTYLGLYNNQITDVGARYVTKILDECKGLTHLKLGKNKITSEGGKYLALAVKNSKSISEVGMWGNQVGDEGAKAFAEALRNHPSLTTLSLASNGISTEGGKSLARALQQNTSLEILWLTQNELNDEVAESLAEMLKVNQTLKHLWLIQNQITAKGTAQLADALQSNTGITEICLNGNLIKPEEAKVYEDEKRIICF
Description: Agonist activity at human NOD1 expressed in HEK-Blue cells assessed as induction of NF-kB transcriptional activity at 20 uM after 18 hrs by SEAP reporter gene assay. The format is cell-based.

Data set [4] concerns the target T1, Nucleotide-binding oligomerization domain-containing protein 2. Description: Agonist activity at human NOD2 expressed in HEK-Blue cells assessed as induction of NF-kB transcriptional activity at 2 uM after 18 hrs in presence of NOD2 antagonist GSK-669 by SEAP reporter gene assay. The format is cell-based.
Data set [5] has the same target. Description: Agonist activity at human NOD2 expressed in HEK-Blue cells assessed as induction of NF-kB transcriptional activity after 18 hrs by SEAP reporter gene assay. Type of data set: cell-based.
The target is the same in data set [6]. Description: Agonist activity at human NOD2 expressed in HEK-Blue cells assessed as induction of NF-kB transcriptional activity at 2 uM after 18 hrs by SEAP reporter gene assay relative to control. Type of data set: cell-based.

Molecules are shown by their SMILES. Active and inactive are the calls of the source. The rule behind the calls is not given here. A value given as a limit tells only on which side of the number the result lay.

Experimental findings from ChEMBL document CHEMBL4020846 (J Med Chem, 2018) are described below.

For orientation: EC50 means the concentration that produces a half-maximal response.

On to `CCOC(=O)C1CCN(C(=O)[C@@H](NC(=O)CNC(=O)/C=C/c2ccc(O)c(OC)c2)C(C)C)CC1`, for which, in data set [1], the viability at 18 h, 20 µM is above 80%. Further, the outcome in data set [2] was Active. Besides, the outcome in data set [3] was inactive.
On to `CCOC(=O)CC[C@@H](NC(=O)[C@H](Cc1ccccc1)NC(=O)CNC(=O)/C=C/c1ccc(F)c(F)c1)C(=O)OCC`, for which, in data set [4], the outcome was inactive. Also, in data set [5], the Activity entry is “Dose-dependent effect” and the 50% effective concentration (EC50) turned out to be 172 nM. In addition, the fold change (FC) in data set [6] turned out to be 5.4. Further, in data set [1], the viability at 18 h, 20 µM is above 80%. For the same compound, the outcome in data set [2] was Active. Besides, the result in data set [3] was inactive.
As to `CCOC(=O)CC[C@@H](NC(=O)[C@@H](NC(=O)CNC(=O)C1CC1c1ccc(F)c(F)c1)C(C)C)C(=O)OCC` (stereo partly specified), the outcome in data set [4] was inactive. Also, in data set [5], the Activity result was “Dose-dependent effect” and the concentration for a half-maximal effect (EC50) turned out to be 247 nM. For the same compound, in data set [6], the fold change (FC) came to 5.8. In data set [1], the viability at 18 h, 20 µM was above 80%. The result in data set [2] was Active. The result in data set [3] was inactive.
In the case of `COC(=O)c1cc(NC(=O)[C@@H](NC(=O)CNC(=O)/C=C/c2ccc(O)c(OC)c2)C(C)C)cc(C(=O)OC)c1`, in data set [1], the viability at 18 h, 20 µM was above 80%. For the same compound, the outcome in data set [2] was Active. Moreover, in data set [3], the outcome was inactive.
Regarding `CCOC(=O)[C@@H]1CCCC[C@@H]1NC(=O)[C@@H](NC(=O)CNC(=O)/C=C/c1ccc(O)c(OC)c1)C(C)C`, in data set [1], the viability at 18 h, 20 µM was above 80%. Further, in data set [2], the outcome was Active. In addition, the result in data set [3] was inactive.
In the case of `CCOC(=O)CC[C@@H](NC(=O)[C@@H](NC(=O)CNC(=O)c1cc2ccc(-c3ccccc3)cc2[nH]1)C(C)C)C(=O)OCC`, the result in data set [4] and in data set [3] was inactive. Moreover, the fold change (FC) in data set [6] worked out at 3.9. For the same compound, in data set [1], the viability at 18 h, 20 µM is above 80%. The result in data set [2] was Active.
With `CCOC(=O)CC[C@@H](NC(=O)[C@H](Cc1ccccc1)NC(=O)CNC(=O)c1cc2ccc(-c3ccccc3)cc2[nH]1)C(=O)OCC`, the result in data set [4] and in data set [3] was inactive. Further, in data set [5], the Activity result is “Dose-dependent effect”. The concentration for a half-maximal effect (EC50) in data set [5] amounted to 777 nM. The fold change (FC) in data set [6] stood at 4.8. In data set [1], the viability at 18 h, 20 µM was above 80%. The outcome in data set [2] was Active.
In the case of `CCOC(=O)CC[C@@H](NC(=O)[C@H](Cc1ccccc1)NC(=O)CNC(=O)/C=C/c1ccc(O)c(OC)c1)C(=O)OCC`, the result in data set [4] was inactive. Moreover, in data set [5], the Activity entry was “Dose-dependent effect” and the EC50 was 121 nM. Further, the fold change (FC) in data set [6] was 5.7. In data set [1], the viability at 18 h, 20 µM is above 80%. Also, the outcome in data set [2] was Active. Further, in data set [3], the outcome was inactive.
Consider `CCOC(=O)CC[C@@H](NC(=O)[C@H](Cc1ccccc1)NC(=O)CNC(=O)C1CC1c1ccc(F)c(F)c1)C(=O)OCC` (stereo partly specified), for which the outcome in data set [4] and in data set [3] was inactive. Besides, the Activity result in data set [5] is “Dose-dependent effect”. For the same compound, in data set [5], the EC50 stood at 276 nM. The fold change (FC) in data set [6] is 5.2. Further, in data set [1], the viability at 18 h, 20 µM was above 80%. In data set [2], the result was Active.
Regarding `CCOC(=O)c1cc(O)ccc1NC(=O)[C@@H](NC(=O)CNC(=O)/C=C/c1ccc(O)c(OC)c1)C(C)C`, the viability at 18 h, 20 µM in data set [1] was above 80%. The outcome in data set [2] was Active. The result in data set [3] was inactive.
On to `CCOC(=O)CC[C@@H](NC(=O)[C@H](C)NC(=O)CNC(=O)/C=C/c1ccc(O)c(OC)c1)C(=O)OCC`, for which the result in data set [4] and in data set [3] was inactive. Also, the EC50 in data set [5] came out at 2790 nM. Further, the fold change (FC) in data set [6] came to 4.5. The viability at 18 h, 20 µM in data set [1] was above 80%. The result in data set [2] was Active.
For the compound `COC(=O)c1ccc(C(=O)OC)c(NC(=O)[C@@H](NC(=O)CNC(=O)/C=C/c2ccc(O)c(OC)c2)C(C)C)c1`, the viability at 18 h, 20 µM in data set [1] was above 80%. In addition, the outcome in data set [2] was Active. In addition, in data set [3], the outcome was inactive.
Regarding `CCOC(=O)CC[C@@H](NC(=O)[C@@H](NC(=O)CNC(=O)[C@@H]1C[C@H]1c1ccccc1)C(C)C)C(=O)OCC`, the outcome in data set [4] and in data set [3] was inactive. The fold change (FC) in data set [6] was 4.4. The viability at 18 h, 20 µM in data set [1] is above 80%. In data set [2], the result was Active.
With `CCOC(=O)CC[C@@H](NC(=O)[C@@H](NC(=O)CNC(=O)/C=C/c1ccccc1)C(C)C)C(=O)OCC`, the result in data set [4] was inactive. In addition, in data set [5], the Activity result is “Dose-dependent effect” and the concentration giving a half-maximal response (EC50) stood at 223 nM. The fold change (FC) in data set [6] amounted to 5.7. The viability at 18 h, 20 µM in data set [1] is above 80%. Besides, the outcome in data set [2] was Active. The result in data set [3] was inactive.
As for `CCOC(=O)CC[C@@H](NC(=O)[C@H](Cc1ccccc1)NC(=O)CNC(=O)[C@@H]1C[C@H]1c1ccccc1)C(=O)OCC`, the result in data set [4] and in data set [3] was inactive. For the same compound, the Activity result in data set [5] is “Dose-dependent effect”. For the same compound, the concentration giving a half-maximal response (EC50) in data set [5] turned out to be 472 nM. Besides, the fold change (FC) in data set [6] came to 5.3. Moreover, the viability at 18 h, 20 µM in data set [1] is above 80%. The result in data set [2] was Active.
On to `CCOC(=O)CC[C@@H](NC(=O)[C@@H](NC(=O)CNC(=O)/C=C/c1ccc(F)c(F)c1)C(C)C)C(=O)OCC`, for which the outcome in data set [4] and in data set [3] was inactive. In addition, the concentration for a half-maximal effect (EC50) in data set [5] was determined as 172 nM. Further, in data set [6], the fold change (FC) amounted to 5.6. Also, in data set [1], the viability at 18 h, 20 µM was above 80%. Further, the outcome in data set [2] was Active.
Regarding `CCOC(=O)[C@H]1CCCC[C@@H]1NC(=O)[C@@H](NC(=O)CNC(=O)/C=C/c1ccc(O)c(OC)c1)C(C)C`, the viability at 18 h, 20 µM in data set [1] is above 80%. Moreover, in data set [2], the outcome was Active. For the same compound, in data set [3], the outcome was inactive.
On to `CCOC(=O)CC[C@@H](NC(=O)[C@H](Cc1ccccc1)NC(=O)CNC(=O)/C=C/c1ccccc1)C(=O)OCC`, for which the result in data set [4] was inactive. Also, in data set [5], the Activity result is “Dose-dependent effect” and the EC50 turned out to be 388 nM. Further, the fold change (FC) in data set [6] was 5.3. In data set [1], the viability at 18 h, 20 µM was above 80%. The result in data set [2] was Active. Moreover, the result in data set [3] was inactive.
